This is an account of results in US6632793B1, “Immunological activity for a peptide of the limulus anti-LPS factor” (Centro de Ingenieria Genetica y Biotecnologia, priority 1997, dated 2003).

This assay relates to NO production in peritoneal macrophages. Description: NO2- secretion (Greiss) in LPS-activated peritoneal macrophages pre-incubated with peptide. The format is cell-based, Balb/c mice. The conditions noted are these: 5 μM pre-incubation 18 h, then LPS 1 μg/ml 72 h; FIG. 7. The method, then:
Peritoneal elicited cells were obtained from Balb/c mice (CENPALAB, Havana, Cuba). Primary mouse macrophages was collected from the peritoneal cavity 4 days after intraperitoneal injection with 1 ml of 4% Brewer's thioglicollate broth. Cell were maintained in RPMI 1640 supplemented with 10% heat-inactivated fetal bovine serum, 2 mM L-glutamine, 200 units/ml penicillin, and 200 μg/ml streptomycin at 37° C. in 5% CO2/[…].
Assay for Secretion of NO2-(Jin, F^29, Nathan, C, Radzioch, 0, and Ding, A. Cell, 1997, 88: 417-426). Cells were plated in 96-well plates at 2×10^6 cells /ml in 200 μl of medium and incubated at 37° C. for 2 h, then non-adherent cells were removed by repeated washing with PBS. […] Cell viability was assessed by mitochondrial-dependent reduction of MTT to formazan (Szabo^30, c, Mitchell, J A, Gross, S S, Thiemermann, C, and Vane, JR. J. Pharm. Exp. Therap., 1992, 265: 674-80). […] Absorbance at 540 nm was recorded in a microplate reader (SUMA) with sodium nitrite as standards (Green^28, L C, Wagner, D A, Glogowski, J, et al. Anal Biochem 1982; 126: 131-8). […]
FIG. 7: Regulatory effect of LALF derived-peptide on NO production in stimulated peritoneal macrophages. […] Levels of NO were measured in the cells cultured supernatants using the Greiss method.

Where a SMILES comes first, the peptide text is derived from it.

For the molecule `CC[C@H](C)[C@H](NC(=O)[C@H](CCCNC(=N)N)NC(=O)[C@H](Cc1ccc(O)cc1)NC(=O)[C@H](Cc1c[nH]cn1)NC(=O)[C@@H](N)CS)C(=O)N[C@@H](CCCCN)C(=O)N1CCC[C@H]1C(=O)N[C@H](C(=O)N[C@@H](Cc1ccccc1)C(=O)N[C@@H](CCCNC(=N)N)C(=O)N[C@@H](CCCNC(=N)N)C(=O)N[C@@H](CC(C)C)C(=O)N[C@@H](CCCCN)C(=O)N[C@@H](Cc1c[nH]c2ccccc12)C(=O)N[C@@H](CCCCN)C(=O)N[C@@H](Cc1ccc(O)cc1)C(=O)N[C@@H](CCCCN)C(=O)NCC(=O)N[C@@H](CCCCN)C(=O)N[C@@H](Cc1ccccc1)C(=O)N[C@@H](Cc1c[nH]c2ccccc12)C(=O)N[C@@H](CS)C(=O)O)[C@@H](C)O` [LALF] (H-CHYRIKPTFRRLKWKYKGKFWC-OH), the “NO production in LPS-activated macrophages (in words)” value is given as “up regulated”.
